target: Apolipoprotein L1 (Homo sapiens, UniProt O14791); test: Inhibition of APOL1 G1 variant in human HEK293-T-REx cells measured by Thallium assay; type: cell-based

SMILES	IC50
O=C(CC1CC(c2c(-c3ccc(F)cc3)[nH]c3c(F)cc(F)cc23)C1)N[C@@H]1CCNC1=O (stereo partly specified)	> 1000 nM
CC[C@H](CO)NC(=O)NC[C@H]1C[C@H](c2c(-c3ccc(F)cc3)[nH]c3c(F)cc(F)cc32)C1	> 1000 nM
O=C(NCCO)C1CC(Cc2c(-c3ccc(F)cc3)[nH]c3c(F)cc(F)cc23)C1 (stereo unspecified)	0.25 nM
O=C(NC[C@H]1C[C@H](c2c(-c3ccc(F)cc3)[nH]c3c(F)cc(F)cc32)C1)N[C@H]1CC[C@H]1O	> 1000 nM
C[C@@H](O)[C@@H](CO)NC(=O)O[C@H]1C[C@H](c2c(-c3ccc(F)cc3)[nH]c3c(F)cc(F)cc32)C1	> 1000 nM
O=C(NCC(F)F)[C@H]1C[C@@H](c2c(-c3ccc(F)cc3)[nH]c3c(F)cc(F)cc32)C1	0.25 nM
Cn1cc(CNC(=O)O[C@H]2C[C@H](c3c(-c4ccc(F)cc4)[nH]c4c(F)cc(F)cc43)C2)nn1	> 1000 nM
O=C(NCC(F)(F)F)[C@H]1C[C@@H](c2c(-c3ccc(F)cc3)[nH]c3c(F)cc(F)cc32)C1	0.25 nM
NC(=O)CNC(=O)[C@H]1C[C@@H](c2c(-c3ccc(F)cc3)[nH]c3c(F)cc(F)cc32)C1	> 1000 nM
O=C(NCC1CCOC1)C1CC(Cc2c(-c3ccc(F)cc3)[nH]c3c(F)cc(F)cc23)C1 (stereo unspecified)	> 1000 nM
O=C(NC(CO)(CO)CO)[C@H]1C[C@H](c2c(-c3ccc(F)cc3)[nH]c3c(F)cc(F)cc32)C1	< 250 nM
CC1(C(=O)NC2(CO)CC2)CC(c2c(-c3ccc(F)cc3)[nH]c3c(F)cc(F)cc23)C1 (stereo unspecified)	< 250 nM
Cn1cnc(CNC(=O)C2(C)CC(c3c(-c4ccc(F)cc4)[nH]c4c(F)cc(F)cc34)C2)c1 (stereo unspecified)	0.25 nM
O=C(NC1CC1)O[C@H]1C[C@H](c2c(-c3ccc(F)cc3)[nH]c3c(F)cc(F)cc32)C1	0.25 nM
O=C(NCCn1cccc1)[C@H]1C[C@@H](c2c(-c3ccc(F)cc3)[nH]c3c(F)cc(F)cc32)C1	> 1000 nM
O=C(NC[C@H]1C[C@H](c2c(-c3ccc(F)cc3)[nH]c3c(F)cc(F)cc32)C1)N[C@H]1CC[C@@H]1O	> 1000 nM
C[C@H](CO)N(C)C(=O)NC[C@H]1C[C@H](c2c(-c3ccc(F)cc3)[nH]c3c(F)cc(F)cc32)C1	> 1000 nM
CC(C)(O)CNC(=O)NC[C@H]1C[C@H](c2c(-c3ccc(F)cc3)[nH]c3c(F)cc(F)cc32)C1	> 1000 nM
CC1(C(=O)NCCO)CC(c2c(-c3ccc(F)cc3)[nH]c3c(F)cc(F)cc23)C1 (stereo unspecified)	0.25 nM
O=C(NCC1(CO)CC1)C1CC(Cc2c(-c3ccc(F)cc3)[nH]c3c(F)cc(F)cc23)C1 (stereo unspecified)	> 1000 nM
O=C(CC1CC(c2c(-c3ccc(F)cc3)[nH]c3c(F)cc(F)cc23)C1)NC1(CO)CC1 (stereo unspecified)	0.25 nM

SMILES	IC50
CC(O)[C@H](CO)NC(=O)[C@H]1C[C@@H](c2c(-c3ccc(F)cc3)[nH]c3c(F)cc(F)cc32)C1 (stereo partly specified)	> 1000 nM
CNC(=O)CN[C@H]1C[C@H](c2c(-c3ccc(F)cc3)[nH]c3c(F)cc(F)cc32)C1	0.25 nM
CN(CC1CC(c2c(-c3ccc(F)cc3)[nH]c3c(F)cc(F)cc23)C1)C(=O)N1CCC1 (stereo unspecified)	> 1000 nM
C[C@@H](O)CNC(=O)NC[C@H]1C[C@H](c2c(-c3ccc(F)cc3)[nH]c3c(F)cc(F)cc32)C1	> 1000 nM
NC(=O)CN[C@H]1C[C@H](c2c(-c3ccc(F)cc3)[nH]c3c(F)cc(F)cc32)C1	> 1000 nM
CC(C)CC(NCC1CC(c2c(-c3ccc(F)cc3)[nH]c3c(F)cc(F)cc23)C1)C(N)=O (stereo unspecified)	> 1000 nM
CC(CO)(CO)NC(=O)[C@H]1C[C@@H](c2c(-c3ccc(F)cc3)[nH]c3c(F)cc(F)cc32)C1	0.25 nM
O=C(NC[C@@H](O)C(F)(F)F)NC[C@H]1C[C@H](c2c(-c3ccc(F)cc3)[nH]c3c(F)cc(F)cc32)C1 (relative stereo)	> 1000 nM
CS(=O)(=O)CCNC(=O)C1CC(Cc2c(-c3ccc(F)cc3)[nH]c3c(F)cc(F)cc23)C1 (stereo unspecified)	> 1000 nM
C[C@H](CO)NC(=O)[C@H]1C[C@@H](c2c(-c3ccc(F)cc3)[nH]c3c(F)cc(F)cc32)C1	> 1000 nM
O=C(N[C@H]1CCNC1=O)O[C@H]1C[C@H](c2c(-c3ccc(F)cc3)[nH]c3c(F)cc(F)cc32)C1 (relative stereo)	> 1000 nM
O=C(NCCn1cncn1)[C@H]1C[C@@H](c2c(-c3ccc(F)cc3)[nH]c3c(F)cc(F)cc32)C1	> 1000 nM
O=C(NC1CCOC1)O[C@H]1C[C@H](c2c(-c3ccc(F)cc3)[nH]c3c(F)cc(F)cc32)C1 (stereo partly specified)	> 1000 nM
O=C(NCC1(O)CC1)NC[C@H]1C[C@H](c2c(-c3ccc(F)cc3)[nH]c3c(F)cc(F)cc32)C1	> 1000 nM
NC(=O)C(CO)NCC1CC(c2c(-c3ccc(F)cc3)[nH]c3c(F)cc(F)cc23)C1 (stereo unspecified)	0.25 nM
C[C@H](CO)NC(=O)CNC(=O)[C@H]1C[C@H](c2c(-c3ccc(F)cc3)[nH]c3c(F)cc(F)cc32)C1	> 1000 nM
CC(O)(CO)CNC(=O)O[C@H]1C[C@H](c2c(-c3ccc(F)cc3)[nH]c3c(F)cc(F)cc32)C1 (stereo partly specified)	> 1000 nM
Cn1nccc1CNC(=O)[C@H]1C[C@@H](c2c(-c3ccc(F)cc3)[nH]c3c(F)cc(F)cc32)C1	> 1000 nM
Cn1cnc(CNC(=O)O[C@H]2C[C@H](c3c(-c4ccc(F)cc4)[nH]c4c(F)cc(F)cc43)C2)c1	> 1000 nM
CO[C@H]1C[C@@H](NC(=O)O[C@H]2C[C@H](c3c(-c4ccc(F)cc4)[nH]c4c(F)cc(F)cc43)C2)C1	> 1000 nM
Cn1cnc(CNC(=O)C2CC(Cc3c(-c4ccc(F)cc4)[nH]c4c(F)cc(F)cc34)C2)c1 (stereo unspecified)	> 1000 nM

SMILES	IC50
CN(C(=O)NC[C@H]1C[C@H](c2c(-c3ccc(F)cc3)[nH]c3c(F)cc(F)cc32)C1)C1COCC1O (stereo partly specified)	> 1000 nM
CON(C)C(=O)CNC[C@H]1C[C@H](c2c(-c3ccc(F)cc3)[nH]c3c(F)cc(F)cc32)C1	0.25 nM
O=C(CC1CC(c2c(-c3ccc(F)cc3)[nH]c3c(F)cc(F)cc23)C1)N[C@H](CO)C(F)(F)F (stereo partly specified)	> 1000 nM
O=C(NC1CC(O)C1)[C@H]1C[C@@H](c2c(-c3ccc(F)cc3)[nH]c3c(F)cc(F)cc32)C1 (stereo partly specified)	> 1000 nM
C[C@H](CO)NC(=O)NC[C@H]1C[C@H](c2c(-c3ccc(F)cc3)[nH]c3c(F)cc(F)cc32)C1	> 1000 nM
C[C@@H](CO)NC(=O)[C@H]1C[C@@H](c2c(-c3ccc(F)cc3)[nH]c3c(F)cc(F)cc32)C1	0.25 nM
C[C@H](CO)NC(=O)C1CCC(c2c(-c3ccc(F)cc3)[nH]c3c(F)cc(F)cc23)C1 (stereo partly specified)	> 1000 nM
O=C(NCC1CC(F)(F)C1)[C@H]1C[C@@H](c2c(-c3ccc(F)cc3)[nH]c3c(F)cc(F)cc32)C1	> 1000 nM
O=C(NC1(CO)CCC1)[C@H]1C[C@@H](c2c(-c3ccc(F)cc3)[nH]c3c(F)cc(F)cc32)C1	0.25 nM
CC(C)[C@@H](CO)NC(=O)O[C@H]1C[C@H](c2c(-c3ccc(F)cc3)[nH]c3c(F)cc(F)cc32)C1	> 1000 nM
Cn1cncc1CNC(=O)C1CC(Cc2c(-c3ccc(F)cc3)[nH]c3c(F)cc(F)cc23)C1 (stereo unspecified)	> 1000 nM
O=C(NC[C@H]1CC[C@@H](CO)O1)NC[C@H]1C[C@H](c2c(-c3ccc(F)cc3)[nH]c3c(F)cc(F)cc32)C1	> 1000 nM
NC(=O)CNC(=O)C1CC(c2c(-c3ccc(F)cc3)[nH]c3c(F)cc(C(F)(F)F)cc23)C1 (stereo unspecified)	< 250 nM
CC(NC(=O)C1CC(Cc2c(-c3ccc(F)cc3)[nH]c3c(F)cc(F)cc23)C1)C1CCOC1 (stereo unspecified)	> 1000 nM
COCCNC(=O)[C@H]1C[C@@H](c2c(-c3ccc(F)cc3)[nH]c3c(F)cc(F)cc32)C1	> 1000 nM
O=C(Nc1c[nH][nH]c1=O)C1CC(Cc2c(-c3ccc(F)cc3)[nH]c3c(F)cc(F)cc23)C1 (stereo unspecified)	> 1000 nM
C[C@H](NCC1CC(c2c(-c3ccc(F)cc3)[nH]c3c(F)cc(F)cc23)C1)C(=O)N(C)C (stereo partly specified)	0.25 nM
Cn1ccnc1CNC(=O)C1CC(Cc2c(-c3ccc(F)cc3)[nH]c3c(F)cc(F)cc23)C1 (stereo unspecified)	> 1000 nM
O=C1NCCC1NC(=O)[C@H]1C[C@@H](c2c(-c3ccc(F)cc3)[nH]c3c(F)cc(F)cc32)C1 (stereo partly specified)	> 1000 nM
Cc1cc(CNC(=O)C2CC(Cc3c(-c4ccc(F)cc4)[nH]c4c(F)cc(F)cc34)C2)nn1C (stereo unspecified)	> 1000 nM
O=C(NCc1ccc(=O)[nH]c1)C1CC(Cc2c(-c3ccc(F)cc3)[nH]c3c(F)cc(F)cc23)C1 (stereo unspecified)	> 1000 nM

SMILES	IC50
CC[C@@H](CO)NC(=O)NC[C@H]1C[C@H](c2c(-c3ccc(F)cc3)[nH]c3c(F)cc(F)cc32)C1	> 1000 nM
O=C(NCc1ccc[nH]c1=O)C1CC(Cc2c(-c3ccc(F)cc3)[nH]c3c(F)cc(F)cc23)C1 (stereo unspecified)	> 1000 nM
O=C(NCC1CCOCC1)C1CC(Cc2c(-c3ccc(F)cc3)[nH]c3c(F)cc(F)cc23)C1 (stereo unspecified)	> 1000 nM
CC(C)(NCC1CC(c2c(-c3ccc(F)cc3)[nH]c3c(F)cc(F)cc23)C1)C(N)=O (stereo unspecified)	> 1000 nM
C[C@H](CO)NC(=O)O[C@H]1C[C@H](c2c(-c3ccc(F)cc3)[nH]c3c(F)cc(F)cc32)C1	0.25 nM
O=C(NCC(F)F)O[C@H]1C[C@H](c2c(-c3ccc(F)cc3)[nH]c3c(F)cc(F)cc32)C1	0.25 nM
CC1(O)CC(NC(=O)NC[C@H]2C[C@H](c3c(-c4ccc(F)cc4)[nH]c4c(F)cc(F)cc43)C2)C1 (stereo partly specified)	> 1000 nM
CCC(O)CNC(=O)O[C@H]1C[C@H](c2c(-c3ccc(F)cc3)[nH]c3c(F)cc(F)cc32)C1 (stereo partly specified)	> 1000 nM
O=C(CN[C@H]1C[C@H](c2c(-c3ccc(F)cc3)[nH]c3c(F)cc(F)cc32)C1)NC1CC1	> 1000 nM
CC(CO)N(C)C(=O)NC[C@H]1C[C@H](c2c(-c3ccc(F)cc3)[nH]c3c(F)cc(F)cc32)C1 (stereo partly specified)	> 1000 nM
C[C@@H](NCC1CC(c2c(-c3ccc(F)cc3)[nH]c3c(F)cc(F)cc23)C1)C(=O)N(C)C (stereo partly specified)	> 1000 nM
CNC(=O)N(C)CC1CC(c2c(-c3ccc(F)cc3)[nH]c3c(F)cc(F)cc23)C1 (stereo unspecified)	> 1000 nM
CC(C)C[C@@H](CO)NC(=O)C1CC(Cc2c(-c3ccc(F)cc3)[nH]c3c(F)cc(F)cc23)C1 (stereo partly specified)	> 1000 nM
CC(C)(C)[C@H](CO)NC(=O)NC[C@H]1C[C@H](c2c(-c3ccc(F)cc3)[nH]c3c(F)cc(F)cc32)C1	> 1000 nM
COCC1(CNC(=O)C2CC(Cc3c(-c4ccc(F)cc4)[nH]c4c(F)cc(F)cc34)C2)CC1 (stereo unspecified)	> 1000 nM
O=C(NC1(CO)CC1)C1(F)CC(c2c(-c3ccc(F)cc3)[nH]c3c(F)cc(F)cc23)C1 (stereo unspecified)	< 250 nM
O=C(NCc1cn(CC(F)(F)F)cn1)O[C@H]1C[C@H](c2c(-c3ccc(F)cc3)[nH]c3c(F)cc(F)cc32)C1	> 1000 nM
O=C(NCC1(CO)COC1)NC[C@H]1C[C@H](c2c(-c3ccc(F)cc3)[nH]c3c(F)cc(F)cc32)C1	> 1000 nM

From ChEMBL document CHEMBL5052856, “Inhibitors of apol1 and methods of using same” (2021)
